ChEMBL document CHEMBL3992551, “Synthesis and evaluation of N-(benzofuran-5-yl)aromaticsulfonamide derivatives as novel HIF-1 inhibitors that possess anti-angiogenic potential” (Bioorg Med Chem, 2017)

What was measured:
[1] = molecular target: T1, Hypoxia-inducible factor 1-alpha (Homo sapiens, UniProt Q16665); assay: Inhibition of HIF-1alpha (unknown origin) transcriptional activity expressed in human MCF7 cells after 24 hrs under hypoxic condition by HRE luciferase reporter gene assay; format: cell-based
Target sequence in this assay (Q16665 whole entry): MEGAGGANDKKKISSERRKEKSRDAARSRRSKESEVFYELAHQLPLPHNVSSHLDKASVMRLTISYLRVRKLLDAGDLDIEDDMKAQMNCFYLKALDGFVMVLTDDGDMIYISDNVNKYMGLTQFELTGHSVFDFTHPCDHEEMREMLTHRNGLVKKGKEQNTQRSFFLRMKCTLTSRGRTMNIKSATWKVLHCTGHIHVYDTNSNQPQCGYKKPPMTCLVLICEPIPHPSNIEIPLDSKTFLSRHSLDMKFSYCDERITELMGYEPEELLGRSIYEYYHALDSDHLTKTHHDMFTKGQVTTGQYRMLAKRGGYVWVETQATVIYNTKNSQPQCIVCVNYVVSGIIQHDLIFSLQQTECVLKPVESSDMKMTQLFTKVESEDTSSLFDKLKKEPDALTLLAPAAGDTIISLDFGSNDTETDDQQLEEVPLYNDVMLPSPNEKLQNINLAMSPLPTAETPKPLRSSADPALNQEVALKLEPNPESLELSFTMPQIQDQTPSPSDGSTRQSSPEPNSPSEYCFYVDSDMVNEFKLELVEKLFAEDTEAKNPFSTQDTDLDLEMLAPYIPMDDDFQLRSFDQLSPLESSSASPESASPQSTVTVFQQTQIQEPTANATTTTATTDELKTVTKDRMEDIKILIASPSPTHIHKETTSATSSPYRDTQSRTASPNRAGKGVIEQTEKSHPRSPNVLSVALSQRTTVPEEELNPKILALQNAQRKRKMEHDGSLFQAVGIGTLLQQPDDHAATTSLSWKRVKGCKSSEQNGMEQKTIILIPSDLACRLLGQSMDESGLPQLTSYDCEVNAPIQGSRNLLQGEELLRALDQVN

[2] = test system: MCF7; assay: Cytotoxicity against human MCF7 cells harboring HRE-driven luciferase gene; format: cell-based
[3] = test system: MCF7; assay: Antiproliferative activity against human MCF7 cells after 72 hrs under hypoxic condition by MTT assay; format: functional, cell-based; conditions: MCF7, 72 h
[4] = test system: MDA-MB-231; assay: Antiproliferative activity against human MDA-MB-231 cells after 72 hrs under hypoxic condition by MTT assay; format: functional, cell-based; conditions: MDA-MB-231, 72 h
[5] = test system: MDA-MB-468; assay: Antiproliferative activity against human MDA-MB-468 cells after 72 hrs under hypoxic condition by MTT assay; format: functional, cell-based; conditions: MDA-MB-468, 72 h
[6] = test system: MCF7; assay: Downregulation of HIF-1alpha mRNA expression level in human MCF7 cells after 24 hrs under hypoxic condition by RT-PCR method; format: functional, cell-based
[7] = test system: MCF7; assay: Downregulation of HIF-1alpha protein expression level in human MCF7 cells after 24 hrs under hypoxic condition by Western blot method; format: functional, cell-based
[8] = molecular target: T1, Hypoxia-inducible factor 1-alpha; assay: Inhibition of HIF-1alpha transcriptional activity in human MCF7 cells assessed as reduction in VEGF mRNA level after 24 hrs under hypoxic condition by RT-PCR method; format: cell-based
Target sequence in this assay (Q16665 whole entry, looked up): as the sequence (Q16665 whole entry) above

[9] = molecular target: T1, Hypoxia-inducible factor 1-alpha; assay: Inhibition of HIF-1alpha transcriptional activity in human MCF7 cells assessed as reduction in VEGF secretion after 24 hrs under hypoxic condition by ELISA; format: cell-based
[10] = test system: HUVEC; assay: Cytotoxicity against HUVEC assessed as reduction in cell viability at 2.5 to 50 uM after 24 hrs by MTT assay; format: cell-based; conditions: human
[11] = test system: HUVEC; assay: Anti-migratory activity against HUVEC assessed as inhibition of hypoxia-induced cell movement after 24 hrs by wound healing assay; format: functional, cell-based; conditions: Homo sapiens
[12] = test system: HUVEC; assay: Anti-angiogenic activity against HUVEC assessed as inhibition of hypoxia-induced tube formation after 24 hrs by 2-dimensional matrigel assay; format: functional, cell-based; conditions: Homo sapiens
[13] = test system: Chorioallantoic membrane; assay: Antiangiogenic activity in chicken chorioallantoic membrane assessed as inhibition of hypoxia-induced vessel formation after 3 days; format: functional; conditions: Gallus gallus

SMILES | IC50 [1] [µM] | Activity [2] | IC50 [3] [µM] | IC50 [4] [µM] | IC50 [5] [µM] | Activity [6] | Activity [7] | inhibition [8] | IC50 [9] [µM] | inhibition [9] | Activity [10] | inhibition [11] | inhibition [12] | inhibition [13]
CCOC(=O)c1oc2ccc(NS(=O)(=O)c3cccc(Cl)c3)cc2c1C | 36.6 | Non-Toxic | 83.9 | 57.3 | 53.7 |  |  |  |  |  |  |  |  | 
CCOC(=O)c1oc2ccc(NS(=O)(=O)c3ccc4ccccc4c3)cc2c1C | 22.6 | Non-Toxic | 20.8 | 21.6 | 15.7 |  |  |  |  |  |  |  |  | 
CCOC(=O)c1oc2ccc(NS(=O)(=O)c3ccc(OC)c(OC)c3)cc2c1C | 12.5 | Non-Toxic | 52 | 35.4 | 20.5 | Dose-dependent effect | Dose-dependent effect | Dose-dependent effect | 18.8 | Dose-dependent effect | Non-Toxic | Dose-dependent effect | Dose-dependent effect | Dose-dependent effect
CCOC(=O)c1oc2ccc(NS(=O)(=O)c3cccc([N+](=O)[O-])c3)cc2c1C | 29.4 | Non-Toxic | 74.8 | 59.9 | 30.1 |  |  |  |  |  |  |  |  | 
CCOC(=O)c1oc2ccc(NS(=O)(=O)c3cc(OC)ccc3OC)cc2c1C | 15.5 | Non-Toxic | 52.3 | 26.7 | 20.7 |  |  |  |  |  |  |  |  | 
CCOC(=O)c1oc2ccc(NS(=O)(=O)c3cccnc3)cc2c1C | 34.1 | Non-Toxic | > 200 | 141 | 62.9 |  |  |  |  |  |  |  |  | 
CCOC(=O)c1oc2ccc(NS(=O)(=O)c3ccc(C)cc3)cc2c1C | 45.4 | Non-Toxic | 53.9 | 25.2 | 24 |  |  |  |  |  |  |  |  | 
CCOC(=O)c1oc2ccc(NS(=O)(=O)c3ccc(C(C)(C)C)cc3)cc2c1C | 27.1 | Non-Toxic | 22.1 | 22.4 | 8.1 |  |  |  |  |  |  |  |  | 
CCOC(=O)c1oc2ccc(NS(=O)(=O)c3cccc(C(F)(F)F)c3)cc2c1C | 36.3 | Non-Toxic | 51.4 | 30.2 | 28.9 |  |  |  |  |  |  |  |  | 
CCOC(=O)c1oc2ccc(NS(=O)(=O)c3ccc([N+](=O)[O-])cc3)cc2c1C | 36.2 | Non-Toxic | 69.6 | 33.1 | 24 |  |  |  |  |  |  |  |  | 
CCOC(=O)c1oc2ccc(NS(=O)(=O)c3ccccc3Cl)cc2c1C | 20.8 | Non-Toxic | > 200 | > 200 | 137 |  |  |  |  |  |  |  |  | 
CCOC(=O)c1oc2ccc(NS(=O)(=O)c3ccccc3Br)cc2c1C | 19.9 | Non-Toxic | 185 | 179 | 138 |  |  |  |  |  |  |  |  | 
CCOC(=O)c1oc2ccc(NS(=O)(=O)c3ccc(Br)cc3)cc2c1C | 29.9 | Non-Toxic | 56.5 | 31.1 | 26.4 |  |  |  |  |  |  |  |  | 
CCOC(=O)c1oc2ccc(NS(=O)(=O)c3cccc(Br)c3)cc2c1C | 25.6 | Non-Toxic | 57 | 33.7 | 30.7 |  |  |  |  |  |  |  |  | 
CCOC(=O)c1oc2ccc(NS(=O)(=O)c3ccccc3C)cc2c1C | 19.4 | Non-Toxic | 105 | 89.2 | 53.4 |  |  |  |  |  |  |  |  | 
CCOC(=O)c1oc2ccc(NS(=O)(=O)c3ccc(Cl)cc3)cc2c1C | 50 | Non-Toxic | 81.2 | 53.9 | 44 |  |  |  |  |  |  |  |  | 
CCOC(=O)c1oc2ccc(NS(=O)(=O)c3ccccc3C(F)(F)F)cc2c1C | 16.5 | Non-Toxic | 93.9 | 82.4 | 74.9 |  |  |  |  |  |  |  |  | 
CCOC(=O)c1oc2ccc(NS(=O)(=O)c3cccs3)cc2c1C | 45.4 | Non-Toxic | 92.3 | 44.1 | 34.3 |  |  |  |  |  |  |  |  | 
CCOC(=O)c1oc2ccc(NS(=O)(=O)c3cccc(C)c3)cc2c1C | 32.7 | Non-Toxic | 101 | 29.5 | 25.3 |  |  |  |  |  |  |  |  | 
CCOC(=O)c1oc2ccc(NS(=O)(=O)c3ccc(C(F)(F)F)cc3)cc2c1C | 41.7 | Non-Toxic | 48.7 | 24.3 | 27.2 |  |  |  |  |  |  |  |  | 
CCOC(=O)c1oc2ccc(NS(=O)(=O)c3ccccc3[N+](=O)[O-])cc2c1C | 24.4 | Non-Toxic | 157 | 80.4 | 96.9 |  |  |  |  |  |  |  |  | 
